Data: patent US20200190135A1, “LASSO STRUCTURES AND THEIR SYNTHESIS” (ChromaCon AG, priority 2016, published 2020)
Numbered stars: 1 amine (or outer) side, 2 acyl side, 3 side chain; on linkers, the order of the positions; unused ones are H or OH. Square brackets hold non-standard residues; d marks the D form. Peptide text beside a SMILES is read from it. * marks the point of attachment. ξ: configuration not given here. X1 = O=C(NCCOCCN(CC(=O)[*:2])[*:1])c1ccc(F)cc1; X2 = c1cc2c(cc1CCN*)OCCOCCOCCOCCOCCOCCO2; Thr(3ξ) = CC(O)[C@H](N)C(=O)O; GABA = NCCCC(=O)O; Cam = NC(=O)C*

Legend:
Format in all cases: in vitro ADME
[1] = test system: trypsin; test: Proteolytic stability, incubation with trypsin; details: incubation for 24 h with trypsin (FIG. 13)
Protocol: (§1) Proteolytic stability of lasso compounds L1, L2, and L3 in comparison to their branched macrocyclic compounds B1, B2, and B3 and the cyclic peptide analogue C1 (see FIG. 11) was tested in separate experiments by incubation for 24 h with chymotrypsin (FIG. 12), trypsin (FIG. 13) and proteinase K (FIG. 14).

[2] = target: proteinase K (Parengyodontium album, UniProt P06873); test: Proteolytic stability, incubation with proteinase K; details: incubation for 24 h with proteinase K (FIG. 14)
Protocol: as §1

[3] = Serum stability, incubation with human serum; details: incubation for 24 h with human serum (FIG. 16)
Protocol: Serum stability of compounds L1, L2, and L3 in comparison to their branched macrocyclic compounds B1, B2, and B3, the cyclic peptide C1, and the linear C- and N-terminally unmasked derivative R1 (see FIG. 15) was tested by incubation for 24 h with human serum (FIG. 16).

Chain of proteinase K (P06873 106-384): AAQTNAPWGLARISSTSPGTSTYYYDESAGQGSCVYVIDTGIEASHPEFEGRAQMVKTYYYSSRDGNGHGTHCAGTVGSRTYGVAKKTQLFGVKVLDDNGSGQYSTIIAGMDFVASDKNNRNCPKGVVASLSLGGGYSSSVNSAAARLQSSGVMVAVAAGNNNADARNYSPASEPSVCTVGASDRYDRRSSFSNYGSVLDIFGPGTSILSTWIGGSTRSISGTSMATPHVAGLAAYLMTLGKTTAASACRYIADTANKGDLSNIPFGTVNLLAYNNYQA

With CC(C)C[C@@H]1NC(=O)[C@H](C(C)O)NC(=O)[C@H](CCCCN)NC(=O)[C@@H](Cc2c[nH]c3ccccc23)NC(=O)[C@H](Cc2ccccc2)NC(=O)[C@H](CSCC(N)=O)NC(=O)CNC(=O)[C@H](Cc2ccccc2)NC(=O)CCCNC1=O (stereo partly shown) [C1] (cyclo(C(Cam)F[dW]K[Thr(3ξ)]L[GABA]FG)) the “stability versus trypsin degradation” value [1] was “similarly stable as L1-L3” and the “stability versus proteinase K degradation” value [2] was “similarly stable as L1-L3”.

CC(C)C[C@H](NC(=O)[C@@H](NC(=O)[C@H](CCCCN)NC(=O)[C@@H](Cc1c[nH]c2ccccc12)NC(=O)[C@H](Cc1ccccc1)NC(=O)[C@H](CSCC(N)=O)NC(=O)CNC(=O)[C@H](Cc1ccccc1)NC(=O)CNCCOCCNC(=O)c1ccc(F)cc1)[C@@H](C)O)C(=O)NCCCC(=O)NCCc1ccc2c(c1)OCCOCCOCCOCCOCCOCCO2 [L1] (H-[X1]FGC(Cam)F[dW]KTL[GABA]-X2) showed a remaining at 24 h ([3]; read-out: remaining compound at the final time point) of roughly 70%.

For CC(C)C[C@H](NC(=O)[C@@H](NC(=O)[C@H](CCCCN)NC(=O)[C@@H](Cc1c[nH]c2ccccc12)NC(=O)[C@H](Cc1ccccc1)NC(=O)[C@H](CSCC(N)=O)NC(=O)CNC(=O)[C@@H](N)Cc1ccccc1)[C@@H](C)O)C(=O)O [R1] (H-FGC(Cam)F[dW]KTL-OH), the “degradation in human serum (in words)” value [3] was “degraded rapidly and completely”.
